What all share (assay type): cell-based
Test [1] deals with MOLM-13 cells. The test is described as follows: Cell viability assay (CELLTITER-GLO), MOLM-13 cells. The note with it: Homo sapiens, MOLM-13, 72 h; Table 2; compound at 10 μM, 3 days; read-out: Effect on MOLM-13 cell viability (% DMSO). As for the experimental part:
(§1) MOLM-13 cells, MV-4-11 cells, H23, and H358 cells were independently cultured in RPMI 1640 media supplemented with 10% fetal bovine serum, streptomycin and penicillin. The cells were plated in white walled 96-well plates at 4,000 cells/well. The cells were incubated in DMSO (control) or a compound for 3 days at 37° C. under 5% CO2. A CELLTITER-GLO® reagent (100 μL) was then added to each well. After a 10 min incubation with shaking, luminescence was measured using an ENVISION® multimode plate reader.
In Tables 1 and 2, each compound was tested at 10 μM; and in Table 3, each compound was tested at 1 μM. In Tables 1 to 3, the cell viability values as % DMSO are reported as “A,” “B,” “C,” or “D;” where “A” represents a % viability value of less than 10%; “B” represents a % viability value of no less than 10% and less than 25%; “C” represents a % viability value of no less than 25% and less than 50%; and “D” represents a % viability value of no less than 50%. Compound A is […]

Test [2] relates to H23 cells. Briefly: Cell viability assay (CELLTITER-GLO), H23 cells. To be noted: Table 4; 3 days. As for the experimental part:
as §1
(§2) IC50 values are summarized in Table 4, where “A” represents an IC50 value of no greater than 1 μM, “B” represents an IC50 value of greater than 1 μM and no greater than 5 μM, “C” represents an IC50 value of greater than 5 μM and no greater than 10 μM, and “D” represents an IC50 value of greater than 10 μM.

Test [3] deals with H358 cells. Briefly: Cell viability assay (CELLTITER-GLO), H358 cells. To be noted: Table 4; 3 days. As for the experimental part: as §1
In Tables 1 and 2, each compound was tested at 10 μM; and in Table 3, each compound was tested at 1 μM. In Tables 1 to 3, the cell viability values as % DMSO are reported as “A,” “B,” “C,” or “D;” where “A” represents a % viability value of less than 10%; “B” represents a % viability value of no less than 10% and less than 25%; “C” represents a % viability value of no less than 25% and less than 50%; and “D” represents a % viability value of no less than 50%. Compound A is
as §2

On to `CCC(=O)N1CCN(c2ncnc3c(Cl)c(-c4c(F)cccc4OCCCCCCCCN4CCC(c5cc(F)cc6c5CN(C5CCC(=O)NC5=O)C6=O)CC4)c(F)cc23)CC1` (stereo not drawn) [Compound 20, 3-(4-(1-(8-(2-(8-Chloro-6-fluoro-4-(4-propionylpiperazin-1-yl)quinazolin-7-yl)-3-fluorophenoxy)octyl)piperidin-4-yl)-6-fluoro-1-oxoisoindolin-2-yl)piperidine-2,6-dione], for which, in test [1], the viability at 10 µM was less than 10%. Besides, the “Inhibition of H23 cells, IC50 (class)” value in test [2] is “B′”. For the same compound, the “Inhibition of H358 cells, IC50 (class)” value in test [3] is on record as “B′”.

As for `C=CC(=O)N1CCN(c2ncnc3c(F)c(-c4c(F)cccc4OCCOCCOCCOCCNc4cccc5c4C(=O)N(C4CCC(=O)NC4=O)C5=O)c(Cl)cc23)CC1` (stereo not drawn) [Compound 23, 4-((2-(2-(2-(2-(2-(4-(4-Acryloylpiperazin-1-yl)-6-chloro-8-fluoroquinazolin-7-yl)-3-fluorophenoxy)ethoxy)ethoxy)ethoxy)ethyl)amino)-2-(2,6-dioxopiperidin-3-yl)isoindoline-1,3-dione], the viability at 10 µM in test [1] was less than 10%. In addition, the “Inhibition of H23 cells, IC50 (class)” value in test [2] is listed as “B′”. Moreover, the “Inhibition of H358 cells, IC50 (class)” value in test [3] is listed as “B′”.

As to `C=CC(=O)N1CCN(c2ncnc3c(F)c(-c4c(F)cccc4OCCCCCCCNCc4ccc(OCc5scc6c5CN([C@H]5CCC(=O)NC5=O)C6=O)cc4)c(Cl)cc23)CC1` [Compound 24, (3S)-3-(1-((4-(((7-(2-(4-(4-Acryloylpiperazin-1-yl)-6-chloro-8-fluoroquinazolin-7-yl)-3-fluorophenoxy)heptyl)amino)methyl)phenoxy)methyl)-4-oxo-4H-thieno[3,4-c]pyrrol-5(6H)-yl)piperidine-2,6-dione], in test [1], the viability at 10 µM is less than 10%. Further, the “Inhibition of H23 cells, IC50 (class)” value in test [2] is “B′”. Besides, in test [3], the “Inhibition of H358 cells, IC50 (class)” value is “B′”.

Turning to `O=C1CCC(N2Cc3c(cc(F)cc3C3CCN(CCCCCCCOc4cccc(F)c4-c4c(Cl)cc5c(N6CCN(C(=O)C7CCCC7)CC6)ncnc5c4F)CC3)C2=O)C(=O)N1` (stereo not drawn) [Compound 51, 3-(4-(1-(7-(2-(6-Chloro-4-(4-(cyclopentanecarbonyl)piperazin-1-yl)-8-fluoroquinazolin-7-yl)-3-fluorophenoxy)heptyl)piperidin-4-yl)-6-fluoro-1-oxoisoindolin-2-yl)piperidine-2,6-dione], the “Inhibition of H23 cells, IC50 (class)” value in test [2] is “B′”. In addition, the “Inhibition of H358 cells, IC50 (class)” value in test [3] is listed as “B′”.

In the case of `O=C1CCC(N2Cc3c(cc(F)cc3C3CCN(CCCCCCCOc4cccc(F)c4-c4c(Cl)cc5c(N6CCN(C(=O)C7CCOCC7)CC6)ncnc5c4F)CC3)C2=O)C(=O)N1` (stereo not drawn) [Compound 52, 3-(4-(1-(7-(2-(6-Chloro-8-fluoro-4-(4-(tetrahydro-2H-pyran-4-carbonyl)piperazin-1-yl)quinazolin-7-yl)-3-fluorophenoxy)heptyl)piperidin-4-yl)-6-fluoro-1-oxoisoindolin-2-yl)piperidine-2,6-dione], the “Inhibition of H23 cells, IC50 (class)” value in test [2] is recorded as “B′”. In addition, in test [3], the “Inhibition of H358 cells, IC50 (class)” value is recorded as “C′”.

For the compound `O=C1CCC(N2Cc3c(cc(F)cc3C3CCN(CCCCCCCOc4cccc(F)c4-c4c(Cl)cc5c(N6CCN(C(=O)CC7CC7)CC6)ncnc5c4F)CC3)C2=O)C(=O)N1` (stereo not drawn) [Compound 53, 3-(4-(1-(7-(2-(6-Chloro-4-(4-(2-cyclopropylacetyl)piperazin-1-yl)-8-fluoroquinazolin-7-yl)-3-fluorophenoxy)heptyl)piperidin-4-yl)-6-fluoro-1-oxoisoindolin-2-yl)piperidine-2,6-dione], in test [2], the “Inhibition of H23 cells, IC50 (class)” value is “B′”. Besides, in test [3], the “Inhibition of H358 cells, IC50 (class)” value is “B′”.

In the case of `O=C1CCC(N2Cc3c(cc(F)cc3C3CCN(CCCCCCCOc4cccc(F)c4-c4c(Cl)cc5c(N6CCN(C(=O)C7CCOC7)CC6)ncnc5c4F)CC3)C2=O)C(=O)N1` (stereo not drawn) [Compound 54, 3-(4-(1-(7-(2-(6-Chloro-8-fluoro-4-(4-(tetrahydrofuran-3-carbonyl)piperazin-1-yl)quinazolin-7-yl)-3-fluorophenoxy)heptyl)piperidin-4-yl)-6-fluoro-1-oxoisoindolin-2-yl)piperidine-2,6-dione], the “Inhibition of H23 cells, IC50 (class)” value in test [2] is “B′”. The “Inhibition of H358 cells, IC50 (class)” value in test [3] is on record as “C′”.

Regarding `CCC(=O)N1CCN(c2ncnc3c(F)c(-c4c(F)cccc4OCCCCCN4CCC(c5cc(F)cc6c5CN(C5CCC(=O)NC5=O)C6=O)CC4)c(Cl)cc23)CC1` (stereo not drawn) [Compound 60, 3-(4-(1-(5-(2-(6-Chloro-8-fluoro-4-(4-propionylpiperazin-1-yl)quinazolin-7-yl)-3-fluorophenoxy)pentyl)piperidin-4-yl)-6-fluoro-1-oxoisoindolin-2-yl)piperidine-2,6-dione], the “Inhibition of H23 cells, IC50 (class)” value in test [2] is given as “C′”. Also, in test [3], the “Inhibition of H358 cells, IC50 (class)” value is recorded as “D′”.

As to `CCC(=O)N1CCN(c2nc(NCCC(=O)N(C)C)nc3c(F)c(-c4c(F)cccc4OCCCCCCCN4CCC(c5cc(F)cc6c5CN(C5CCC(=O)NC5=O)C6=O)CC4)c(Cl)cc23)CC1` (stereo not drawn) [Compound 86, 3-((6-Chloro-7-(2-((7-(4-(2-(2,6-dioxopiperidin-3-yl)-6-fluoro-1-oxoisoindolin-4-yl)piperidin-1-yl)heptyl)oxy)-6-fluorophenyl)-8-fluoro-4-(4-propionylpiperazin-1-yl)quinazolin-2-yl)amino)-N,N-dimethylpropanamide], in test [2], the “Inhibition of H23 cells, IC50 (class)” value was “B′”. In addition, in test [3], the “Inhibition of H358 cells, IC50 (class)” value is “B′”.

Turning to `C=C(Cl)C(=O)N1CCN(c2ncnc3c(F)c(-c4c(F)cccc4OCCCCCCCN4CCCC(c5cc(F)cc6c5CN(C5CCC(=O)NC5=O)C6=O)C4)c(Cl)cc23)CC1` (stereo not drawn) [Compound 106, 3-(4-(1-(7-(2-(6-Chloro-4-(4-(2-chloroacryloyl)piperazin-1-yl)-8-fluoroquinazolin-7-yl)-3-fluorophenoxy)heptyl)piperidin-3-yl)-6-fluoro-1-oxoisoindolin-2-yl)piperidine-2,6-dione], in test [2], the “Inhibition of H23 cells, IC50 (class)” value is “A′”. In test [3], the “Inhibition of H358 cells, IC50 (class)” value was “A′”.

On to `C=C(Cl)C(=O)N1CCN(c2ncnc3c(F)c(-c4c(F)cccc4OCCc4ccc(CCN5CCC(c6cc(F)cc7c6CN(C6CCC(=O)NC6=O)C7=O)CC5)cc4)c(Cl)cc23)C[C@H]1CC#N` (stereo partly drawn) [Compound 131, 2-((2R)-4-(6-Chloro-7-(2-(4-(2-(4-(2-(2,6-dioxopiperidin-3-yl)-6-fluoro-1-oxoisoindolin-4-yl)piperidin-1-yl)ethyl)phenethoxy)-6-fluorophenyl)-8-fluoroquinazolin-4-yl)-1-(2-chloroacryloyl)piperazin-2-yl)acetonitrile], for which, in test [2], the “Inhibition of H23 cells, IC50 (class)” value was “A′”. Moreover, the “Inhibition of H358 cells, IC50 (class)” value in test [3] is “A′”.

As to `C=C(Cl)C(=O)N1CCN(c2nc(OC[C@@H]3CCCN3C)nc3c(F)c(-c4c(F)cccc4OCCCCCCCN4CCC(c5cc6c(cc5F)C(=O)N(C5CCC(=O)NC5=O)C6)CC4)c(Cl)cc23)C[C@H]1CC#N` (stereo partly drawn) [Compound 132, 2-((2R)-4-(6-Chloro-7-(2-((7-(4-(2-(2,6-dioxopiperidin-3-yl)-6-fluoro-1-oxoisoindolin-5-yl)piperidin-1-yl)heptyl)oxy)-6-fluorophenyl)-8-fluoro-2-(((S)-1-methylpyrrolidin-2-yl)methoxy)quinazolin-4-yl)-1-(2-chloroacryloyl)piperazin-2-yl)acetonitrile], in test [2], the “Inhibition of H23 cells, IC50 (class)” value is reported as “B′”. Also, the “Inhibition of H358 cells, IC50 (class)” value in test [3] is “B′”.

The record behind these values is patent publication US12630547B2, “RAS protein degraders, pharmaceutical compositions thereof, and their therapeutic applications” (BioTheryX, Inc., priority 2019, dated 2026).
